In article PMC6985242, “Effect of Amoxicillin in combination with Imipenem-Relebactam against Mycobacterium abscessus” (Scientific Reports, 2020):
Blank lines part the entries; values can stand above or below the molecule they belong to.

Experiments:
Assay type in all cases: biochemical
[1] = target: T1, BlaMab (M. abscessus endogenous class A beta-lactamase) (Mycobacteroides abscessus, UniProt B1MCI3); test: TLC turnover assay with recombinant BlaMab
T1 construct: gene MAB_2875; -30 residue N-terminal truncated protein, 6x-His tagged

[2] = target: T1, BlaMab (M. abscessus endogenous class A beta-lactamase); test: spectrophotometric hydrolysis at […] nm, Michaelis-Menten (Km across […] relebactam)
[3] = target: T1, BlaMab (M. abscessus endogenous class A beta-lactamase); test: nitrocefin hydrolysis kinetics (Ki app, k2/Ki, koff) with recombinant BlaMab; TLC penicillin V assay

T1 sequence (B1MCI3 entry or part of it): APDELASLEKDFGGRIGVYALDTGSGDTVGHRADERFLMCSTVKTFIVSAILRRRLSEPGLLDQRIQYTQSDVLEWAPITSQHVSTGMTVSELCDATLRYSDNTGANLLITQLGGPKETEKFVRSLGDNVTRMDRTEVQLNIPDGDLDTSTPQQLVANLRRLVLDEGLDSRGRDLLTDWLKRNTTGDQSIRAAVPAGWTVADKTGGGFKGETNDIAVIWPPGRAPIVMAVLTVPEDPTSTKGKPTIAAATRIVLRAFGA

Compound: CC1(C)S[C@@H]2[C@H](NC(=O)COc3ccccc3)C(=O)N2[C@H]1C(=O)O [PenV, penicillin V]
TLC turnover assay with recombinant BlaMab [1]: The hydrolysis of penicillin V to penicilloic acid by BlaMab resulted in a spot with reduced Rf value

Compound: O=C(Cc1cccs1)N[C@@H]1C(=O)N2C(C(=O)O)=C(/C=C/c3ccc([N+](=O)[O-])cc3[N+](=O)[O-])CS[C@H]12 [nitrocefin]
Km [2]: 69.43–16.96 µM

Ki [3]: 184 nM
Compound: O=C(NC1CCNCC1)[C@@H]1CC[C@@H]2CN1C(=O)N2OS(=O)(=O)O [REL, relebactam]
